According to patent US4035394A, “5-Phenyl-2-furanyl-oxo or-hydroxy alkanoic acids and ethyl esters as gastric acid antisecretory agents” (Morton-Norwich Products, Inc., priority 1976, dated 1977):

System: gastric acid secretion
Test: modified standard pylorus-ligated secretory testing procedure in the rat
Format: in vivo, Sprague-Dawley rat
Settings: 300 mg/kg p.o. suspension in 0.5% Methocel 1 hour prior to pylorus ligation, 4 hours after ligation; for % Inhibition Gastric Acid Output: titration to pH7, vs control; for % Inhibition Vol. of Gastric Secretion: vs control
Experimental: Such effect is evidenced using a modified standard pylorus-ligated secretory testing procedure in the rat. Sprague-Dawley rats, weighing 180-210 g and previously fasted for 24 hours, were used. All compounds were given perorally as suspensions in 0.5% Methocel 1 hour prior to pylorus ligation. Under light ether anesthesia, the rat stomach was ligated at the pylorus region. Four hours after ligation the conscious rat was sacrificed by a chloroform overdose. The stomach was carefully excised and its content drained into a centrifuge tube. Samples were centrifuged to separate secretions from debris. Gastric fluid volume reading and determination of sample contamination, based on debris and sample color, was made. Titration was performed on a sample aliquot of 1 ml diluted to a volume of 5 ml using distilled water. The titrant used was 0.1N NaOH. Total gastric acid output in the stomach was determined by titration to pH7. A dose of 300 mg/kg p.o. of a compound was administered to a group of rats and its effect on the volume of gastric secretion and acid output compared to a control group receiving 0.5% Methocel p.o. The activity of each compound based on the degree of inhibition of gastric acid output is set forth in Table I.

SMILES	% Inhibition Gastric Acid Output [%]	% Inhibition Vol. of Gastric Secretion [%]
O=C(O)CCC(=O)c1ccc(-c2ccc(Cl)cc2)o1 [IV, B]	57.1	40.7
O=C(O)CC(O)c1ccc(-c2ccc(Cl)cc2Cl)o1 (stereo not drawn) [V, 3-[5-(2,4-Dichlorophenyl)-2-furanyl]-3-hydroxypropanoic Acid]	45.4	3.4
O=C(O)CC(O)c1ccc(-c2ccccc2Cl)o1 (stereo not drawn) [III, 3-[5-(2-Chlorophenyl)-2-furanyl]-3-hydroxypropanoic Acid]	95.0	33.5
CCOC(=O)CC(=O)c1ccc(-c2ccc(Cl)cc2)o1 [VI, B]	50.0	19.8
O=C(O)CCC(O)c1ccc(-c2ccc(Cl)cc2)o1 (stereo not drawn) [II, 4-[5-(4-Chlorophenyl)-2-furanyl]-4-hydroxybutanoic Acid]	72.3	47.3
CCOC(=O)CC(O)c1ccc(-c2ccc([N+](=O)[O-])cc2)o1 (stereo not drawn) [Example I, Ethyl 3-[5-(4-Nitrophenyl)-2-furanyl]-3-hydroxypropanoate]	43.1	33.17
